According to publication PMC6317893 (Journal of pharmaceutical sciences, 2018):
Where two headings read alike, the source gives them in different places.

What was measured:
mouse Pgp (Abcb1a, MDR3) [1] = biological target: T1, mouse Pgp (Abcb1a, MDR3) (Mus musculus, UniProt P21447); experiment: biochemical
mouse Pgp (Abcb1a, MDR3) [2] = biological target: T1, mouse Pgp (Abcb1a, MDR3)
mouse Pgp (Abcb1a, MDR3) [3] = biological target: T1, mouse Pgp (Abcb1a, MDR3); remark: listed apart in the source
mouse Pgp (Abcb1a, MDR3) [4] = biological target: T1, mouse Pgp (Abcb1a, MDR3); remark: listed apart in the source
Pgp [5] = settings: cited from earlier work
Pgp [6] = settings: Caco-2 cells, cited from earlier work
mouse Pgp (Abcb1a, MDR3) [7] = biological target: T1, mouse Pgp (Abcb1a, MDR3); settings: for KSV of acrylamide quenching of Pgp (slope of Stern-Volmer plot): 1 μM Pgp
mouse Pgp (Abcb1a, MDR3) [8] = biological target: T1, mouse Pgp (Abcb1a, MDR3); experiment: in vitro; settings: pH 7.4
human and mouse Pgp = settings: study of CNS drugs ref 96; cited from earlier work
Pgp [9] = settings: rats ref 32; cited from earlier work
mouse Pgp (Abcb1a, MDR3) [10] = biological target: T1, mouse Pgp (Abcb1a, MDR3); experiment: biochemical; remark: listed apart in the source
Pgp [11] = settings: humans ref 32; cited from earlier work

T1 sequence (P21447 whole entry): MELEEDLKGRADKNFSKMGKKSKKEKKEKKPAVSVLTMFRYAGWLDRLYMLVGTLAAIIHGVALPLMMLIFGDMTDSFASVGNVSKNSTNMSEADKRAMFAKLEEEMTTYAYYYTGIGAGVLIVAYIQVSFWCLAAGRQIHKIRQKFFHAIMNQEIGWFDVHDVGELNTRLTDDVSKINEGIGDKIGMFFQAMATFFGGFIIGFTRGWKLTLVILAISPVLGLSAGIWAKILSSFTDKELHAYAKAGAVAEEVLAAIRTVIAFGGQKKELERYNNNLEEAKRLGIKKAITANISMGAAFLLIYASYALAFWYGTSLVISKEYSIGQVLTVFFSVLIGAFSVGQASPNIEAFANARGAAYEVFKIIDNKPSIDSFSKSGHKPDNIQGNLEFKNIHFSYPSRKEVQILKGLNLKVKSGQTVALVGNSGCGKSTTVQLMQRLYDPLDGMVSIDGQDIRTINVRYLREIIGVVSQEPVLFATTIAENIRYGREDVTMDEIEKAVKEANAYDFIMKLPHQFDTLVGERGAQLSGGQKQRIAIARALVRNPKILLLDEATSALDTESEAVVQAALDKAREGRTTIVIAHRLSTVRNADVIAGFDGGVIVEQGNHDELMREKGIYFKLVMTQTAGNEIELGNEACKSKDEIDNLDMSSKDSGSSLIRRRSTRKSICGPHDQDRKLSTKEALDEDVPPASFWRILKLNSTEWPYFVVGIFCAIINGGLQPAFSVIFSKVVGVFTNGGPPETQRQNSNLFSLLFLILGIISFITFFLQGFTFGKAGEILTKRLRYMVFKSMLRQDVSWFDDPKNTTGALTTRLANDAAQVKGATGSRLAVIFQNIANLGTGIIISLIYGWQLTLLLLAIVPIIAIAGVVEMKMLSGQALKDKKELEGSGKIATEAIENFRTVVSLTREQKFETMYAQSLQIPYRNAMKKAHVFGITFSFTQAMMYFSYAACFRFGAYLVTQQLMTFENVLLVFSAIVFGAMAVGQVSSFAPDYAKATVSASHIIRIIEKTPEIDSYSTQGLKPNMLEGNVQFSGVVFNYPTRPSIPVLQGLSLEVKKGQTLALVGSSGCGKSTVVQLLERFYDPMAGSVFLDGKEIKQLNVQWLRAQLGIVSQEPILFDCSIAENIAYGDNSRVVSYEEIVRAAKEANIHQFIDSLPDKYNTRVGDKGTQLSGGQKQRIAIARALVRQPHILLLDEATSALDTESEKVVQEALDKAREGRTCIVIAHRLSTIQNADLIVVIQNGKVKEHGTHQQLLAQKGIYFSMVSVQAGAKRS

In the case of `CCC(=O)C(CC(C)N(C)C)(c1ccccc1)c1ccccc1` (stereo not shown) [methadone], the Kd (mouse Pgp (Abcb1a, MDR3) [1]) is reported as 72.7 ± 11.7 µM, the “ATPase activity at saturating drug” value (mouse Pgp (Abcb1a, MDR3) [2]) is reported as “around 800 nmol min^−1 mg^−1” and the “Average STDD amplification factor” value (mouse Pgp (Abcb1a, MDR3) [3]) is reported as ~ 10. For the same molecule, the “Increase of KD at low loperamide concentration” value (mouse Pgp (Abcb1a, MDR3) [4]) was ~ 5 fold and the “KSV (Stern-Volmer constant) of drug-induced Pgp fluorescence quenching” value (mouse Pgp (Abcb1a, MDR3) [4]) was 0.0137 ± 0.0022 µM⁻¹.

For `C[C@H]1O[C@@H](O[C@H]2[C@@H](O)C[C@H](O[C@H]3[C@@H](O)C[C@H](O[C@H]4CC[C@@]5(C)[C@H](CC[C@@H]6[C@@H]5C[C@@H](O)[C@]5(C)[C@@H](C7=CC(=O)OC7)CC[C@]65O)C4)O[C@@H]3C)O[C@@H]2C)C[C@H](O)[C@@H]1O` [digoxin], the Kd (mouse Pgp (Abcb1a, MDR3) [1]) was 32 ± 13.4 µM, the “KSV,L (Stern-Volmer constant, low concentration phase)” value (mouse Pgp (Abcb1a, MDR3) [4]; in the presence of 500 μM loperamide, biphasic, fit to Eq. 5, dynamic quenching) was 4.59 ± 2.10 µM⁻¹ and the “KSV,H (Stern-Volmer constant, high concentration phase)” value (mouse Pgp (Abcb1a, MDR3) [4]; in the presence of 500 μM loperamide, biphasic, fit to Eq. 5, static quenching) was 0.0241 ± 0.0108 µM⁻¹.

In the case of `CN(C)C(=O)C(CCN1CCC(O)(c2ccc(Cl)cc2)CC1)(c1ccccc1)c1ccccc1` [loperamide], the “Level in brain, Pgp-knockout mice versus wild-type” value (Pgp [5]) is listed as greater than 10 fold, the “Transport at 100 μM” value (Pgp [6]; 100 μM ref 89) is listed as “inhibited” and the “Concentration at which transport was highest” value (Pgp [6]; in vitro ref 89) is listed as 5 µM. For the same molecule, the “Increase of acrylamide-quenching KSV” value (mouse Pgp (Abcb1a, MDR3) [7]; 500 μM versus 7.8 μM drug) was “about 1.4 M^−1”, the “KSV of acrylamide quenching of Pgp (slope of Stern-Volmer plot)” value (mouse Pgp (Abcb1a, MDR3) [7]; in the presence of 7.8 μM drug) was 0.851 ± 0.002 M⁻¹ and the “KSV of acrylamide quenching of Pgp (slope of Stern-Volmer plot)” value (mouse Pgp (Abcb1a, MDR3) [7]; in the presence of saturating 500 μM drug) was 2.25 ± 0.17 M⁻¹. The Km (mouse Pgp (Abcb1a, MDR3) [8]) was 1600 ± 400 nM, the “Difference of efflux ratios between human and mouse Pgp” value (human and mouse Pgp) was “less than 2 fold” and the “Levels of loperamide in the presence of cyclosporine A (CsA)” value (Pgp [9]) was “elevated levels”. For the same molecule, the Ki (mouse Pgp (Abcb1a, MDR3) [10]) was 108 ± 27 µM, the “Shape of drug-induced ATPase activation kinetics” value (mouse Pgp (Abcb1a, MDR3) [2]) was “biphasic” and the “ATPase activity, apparent maximum” value (mouse Pgp (Abcb1a, MDR3) [2]; at 7.8 μM drug) was “around 800 nmol min^−1 mg^−1”. The “ATPase activity at saturating drug” value (mouse Pgp (Abcb1a, MDR3) [2]; at saturating (500 μM) drug) was ~ 400 nmol min^−1 mg^−1, the “Average STDD amplification factor” value (mouse Pgp (Abcb1a, MDR3) [3]; 1 mM drug, 1 μM Pgp in liposomes) was ~ 30 and the “STDD amplification factor of aromatic protons” value (mouse Pgp (Abcb1a, MDR3) [3]; aromatic protons labeled 9–13, 1 mM drug, 1 μM Pgp) was ~ 30. The “Levels of loperamide in the presence of cyclosporine A (CsA)” value (Pgp [11]) was “elevated levels” and the “Quenching of intrinsic Pgp fluorescence by the drug” value (mouse Pgp (Abcb1a, MDR3) [4]; data not shown) was “did not quench”.
